# In patent US8372867B2, “Insecticidal aryl isoxazoline derivatives” (Bayer CropScience AG, priority 2007, dated 2013):
# Key:
# [1] = test system: Ctenocephalides felis felis; experiment: Efficacy against fleas Ctenocephalides felis felis on cats; type: in vivo; settings: 0.1 ml/kg (15 mg/kg) applied as Spot-on, once on day 0, weekly reinfestation
# Protocol: On study days −4 and −1 prior to treatment cats are infested with about 100 adult not fed fleas (Ctenocephalides felis felis). The fleas are released on the neck on the fur of the cats
# On study day 0 the flea infestation rate is checked by counting the fleas on the animals. The number of live fleas is recorded.
# After flea counting the cats are treated with the investigational product. Cats of the control group are left untreated and serve as negative control group. The investigational veterinary product is applied dermally as one spot at a dose volume of 0.1 to 0.2 ml/kg body weight. Treatment is performed only once on study day 0. Only healthy cats are treated and included in the study.
# Flea counts are performed on study days 1 and/or 2 where the cats are combed and the number of live fleas recorded. The results are documented.
# In weekly intervals the cats are reinfested with about 100 adult not fed fleas per cat. One and/or two days after reinfestation the cats are combed and the live fleas counted for each animal. The results are recorded.
# Efficacy should be given over a three to four week period
# For the calculation of the effectiveness the modified Abbott formula is used: […]
# Ixodes ricinus = experiment: Efficacy against ticks (Ixodes ricinus) on cats; type: in vivo; settings: 0.1 ml/kg (15 mg/kg) applied as Spot on, once on day 0, weekly reinfestation
# Protocol: On study days −4 and/or −1 cats are sedated with a combination of the active ingredients ketaminhydrochloride and acepromazinmaleat. After all cats are sedated (approximately after 10-15 minutes) the cats are placed in single cages and 50 Ixodes ricinus ticks (25 female and 25 male) are released on the fur on the back of the cat. The cats are sleeping for about 1 h to 1.5 h and restrained from grooming and removing the ticks.
# On study days −3 or 0 tick infestation rate is checked, while the cats are placed on an examination table. The area around the head, ears, eyes, neck and lateral and ventral part of the body and between the toes is checked intensively. The number of live attached engorged ticks is counted and recorded. Dead ticks are removed.
# After tick counting on study day 0 treatment is performed. Cats of the control group are left untreated and serve as negative control group. The investigational veterinary product is applied as one single spot on the skin at the base of the skull. Treatment is performed only once on day 0. […]
# On study day 1 and/or 2 tick counts are performed and the number of life or dead attached ticks counted and recorded. […]
# In weekly intervals each cat is infested with 50 Ixodes ricinus ticks (25 female and 25 male) and tick counts are performed 1 and/or 2 days after reinfestation. Life and dead attached ticks are counted and recorded. […]
# Boophilus microplus [2] = experiment: whole plant or invertebrate; settings: Rhipicephalus microplus, 168 h, read-out: activity (mortality in %)
# Lucilia cuprina larvae = experiment: whole plant or invertebrate; settings: in Equus caballus, read-out: activity (mortality in %)
# Musca domestica [3] = experiment: whole plant or invertebrate; settings: read-out: activity (mortality in %)
# Aulacophora femoralis = experiment: Test against Aulacophora femoralis (leaf dip); type: in vivo; settings: 100 ppm of the active compound; second instar larvae; after 7 days
# Protocol: (§1) To prepare an appropriate formulation of an active compound, 1 part by weight of the active compound was mixed with the aforementioned amount of the solvent containing the aforementioned amount of the emulsifier, and the mixture was diluted to a prescribed concentration with water.
# Leaves of cucumbers were soaked in a diluted aqueous solution of the prescribed concentration of an active compound prepared in the same manner as in the aforementioned tests, air-dried, and placed a plastic cup containing sterilized black soil. Into this cup, 5 larvae of Aulacophora femoralis at second instar were then released. After 7 days, the number of dead larvae was counted to calculate the death rate.
# Amblyomma hebraeum = experiment: Test against Amblyomma hebraeum (nymph dip); type: in vivo; settings: 1008 h, read-out: activity (mortality in %)
# Protocol: Nymphs of the tick Amblyomma hebraeum are placed in perforated plastic beakers and immersed in aqueous compound solution for one minute. Ticks are transferred to a filter paper in a Petri dish and incubated in a climate chamber for 42 days.
# Spodoptera litura = experiment: Test against larva of Spodoptera litura (leaf dip); type: in vivo; settings: 100 ppm of the active compound; third instar larvae; after 7 days
# Protocol: Solvent: Dimethylformamide 3 parts by weight
# Emulsifier: Polyoxyethylene alkyl phenyl ether 1 part by weight
# as §1
# Leaves of sweet potate were soaked in the test agent diluted to a prescribed concentration with water, air-dried, and placed in a dish of 9 cm in diameter. Into this dish, 10 larvae of Spodoptera litura at the third instar were released and kept in a room at constant temperature of 25° C. After 2 and 4 days, more leaves of sweet potato were added, and the number of dead larvae after 7 days was counted to calculate the death rate. In this test, the test results are presented as an average of the results of two dishes per section.
# Ctenocephalides felis = experiment: Test against Ctenocephalides felis (Example 5-1, blood feeding, dimethylformamide); type: in vivo; settings: 100 ppm of the active ingredient; adults fed on treated blood
# Protocol: In order to prepare an appropriate formulation of an active compound, 10 mg of the active compound is dissolved in 0.5 mL of the aforementioned solvent, and the mixture is diluted to a prescribed concentration with blood from domestic animals.
# About 10 to 15 adults of Ctenocephalides felis were kept in a flea-specific container. Another container containing the blood solution containing the compound prepared as described above was covered with a laboratory film [[…]™]. The blood containing container was turned upside down and placed on the flea-specific container. This system enables Ctenocephalides felis to suck the blood in the container. The blood solution was kept at 37° C. and the flea-specific container was kept at room temperature. After a certain period of time, the death rate of Ctenocephalides felis was calculated. For this test, the death rate of 100% means death of all Ctenocephalides felis, while the death rate of 0% means that all the fleas survived.
# Boophilus microplus [4] = experiment: Test against Boophilus microplus (injection, Example 6-1, dimethylformamide); type: in vivo; settings: dose of 20 ug/animal; injection into abdomen of fully fed adult females
# Protocol: (§2) In order to prepare an appropriate formulation of an active compound, 10 mg of the active compound was dissolved in 0.5 mL of the aforementioned solvent, and the mixture was diluted to a prescribed concentration with water.
# A solution of a compound formulated as above was injected into 5 fully fed adult female Boophilus microplus in their abdomen. These Boophilus microplus were transferred to a replica dish and kept in an incubating cabinet for a certain period of time.
# After a certain period of time, the death rate of Boophilus microplus was calculated. In this test, the death rate of 100% means death of all Boophilus microplus, while the death rate of 0% means that all the mites survive.
# Musca domestica [5] = experiment: Test against Musca domestica (Example 8-1, dimethylformamide); type: in vivo; settings: 100 ppm of the active ingredient; adults, sugar/compound soaked sponge
# Protocol: In order to prepare an appropriate formulation of an active compound, 10 mg of the active compound was dissolved in 0.5 mL of the above solvent, and the resultant mixture was diluted to a prescribed concentration with water.
# As a preparatory stage, a mixture of sugar and an aqueous solution of a compound prepared as above was absorbed into a sponge of a given size, and the sponge was place into a test container. 10 adult insects of Musca domestica were placed into the container, and the container was covered with a perforated cover.
# After a certain period of time, the death rate of Musca domestica is calculated. In this test, the death rate of 100% means death of all Musca domestica, while the death rate of 0% means that all the flies survived.
# Lucillia cuprina = experiment: Test against Lucillia cuprina (Example 7-1, dimethylformamide); type: in vivo; settings: 100 ppm of the active ingredient; larvae on minced horsemeat
# Protocol: as §2
# About 20 to 30 larvae of Lucillia cuprina were placed into a test tube containing 1 cm^3 of minced horsemeat and 0.5 mL of an aqueous solution of a compound prepared as above.
# After a certain period of time, the death rate of Lucillia cuprina was calculated. For this test, the death rate of 100% means death of all Lucillia cuprina, while the death rate of 0% means that all the flies survived.
# [6] = test system: organic phosphorus agent- and carbamate agent-resistant Myzus persicae; experiment: Test against organic phosphorus agent- and carbamate agent-resistant Myzus persicae (spray); type: in vivo; settings: 500 ppm of the active compound; adults on eggplant; 7 days at 28° C.
# Protocol: as §1
# About 30 to 50 adults of organic phosphorus agent- and carbamate agent-resistant Myzus persicae per seedling were inoculated to leaves of eggplants at two leaf stage cultured in a pot of 6 cm in diameter. One day after the inoculation, an ample amount of the diluted aqueous solution of the prescribed concentration of an active compound prepared in the same manner as in the aforementioned tests was sprayed with a spray gun. After the spraying, the pot was kept in a greenhouse at 28° C. for 7 days, the death rate was calculated. The test was duplicated.
compound,measurement,setting,value
CC(=O)NCc1ccc(C2=NOC(c3cc(Cl)c(Cl)c(Cl)c3)(C(F)(F)F)C2)cc1Br (centres unmarked) [1-129],efficacy (modified Abbott formula),[1],> 95%
same,efficacy (modified Abbott formula),Ixodes ricinus,> 90%
"CC(=S)NCc1ccc(C2=NOC(c3cc(Cl)cc(Cl)c3)(C(F)(F)F)C2)cc1Br (centres unmarked) [1-44, N-{2-bromo-4-[5-(3,5-dichlorophenyl)-5-(trifluoromethyl)-4,5-dihydroisoxazol-3-yl]benzyl}ethanethioamide]",mortality at 100 ppm,Boophilus microplus [2],≥ 80%
same,mortality at 100 ppm,Lucilia cuprina larvae,≥ 80%
same,mortality at 100 ppm,Musca domestica [3],≥ 80%
same,death rate,Aulacophora femoralis,100%
same,mortality at 100 ppm,Amblyomma hebraeum,≥ 80%
same,death rate,Spodoptera litura,100%
CC(=O)N(Cc1ccccn1)Cc1ccc(C2=NOC(c3cc(Cl)cc(Cl)c3)(C(F)(F)F)C2)cc1C (centres unmarked) [1-64],death rate,Ctenocephalides felis,more than 80%
same,death rate,Boophilus microplus [4],more than 80%
same,death rate,Musca domestica [5],more than 80%
same,death rate,Lucillia cuprina,more than 80%
"CC(=O)N(Cc1ccccn1)Cc1ccc(C2=NOC(c3cc(Cl)cc(Cl)c3)(C(F)(F)F)C2)cc1C#N (centres unmarked) [1-61, N-{2-cyano-4-[5-(3,5-dichlorophenyl)-5-(trifluoromethyl)-4,5-dihydroisoxazol-3-yl]benzyl}-N-(pyridin-2-ylmethyl)acetamide]",death rate,[6],100%
same,mortality at 100 ppm,Lucilia cuprina larvae,≥ 80%
same,mortality at 100 ppm,Musca domestica [3],≥ 80%
same,death rate,Aulacophora femoralis,100%
same,death rate,Spodoptera litura,100%
